Here are results for two molecules from patent publication US8652770B2, “Storage of platelets under pressure with xenon containing atmosphere” (Rich Products Corporation, priority 2008, dated 2014).

Common to all, as to assay type: cell-based, rabbit
Test [1] relates to platelets. The test can be described thus: Platelet cell counting (hemocytometer) after storage of PRP. The settings on record: 4° C.; for # cells: Table 3, 4 bars total pressure of gas, 7 days; for Cell number: Input = 100%. More on the design: # cells: unit not given here. The protocol: Blood was obtained by puncturing a rabbit marginal ear vein and collecting blood in a sterile vacuum tube. About 10-15 ml of blood was used, although the amount taken from any particular individual can be varied by the skilled artisan according to routine considerations, such as the size of the individual and the intended use of the platelets prepared according to the method of the invention.
The blood was centrifuged at a speed of approximately 200 g for 10 minutes to separate red blood cells (RBC) and platelet rich plasma (PRP). The PRP was transferred to another tube.
(§1) Two microliters of PRP were used to count cells essentially as described in Born et al. (J. Physiol. (1963) Vol. 168, pp 178-195). An additional two microliters were used for antibody staining and flow cytometry analysis performed essentially as reported in Shattil et al. (1987) Detection, Blood Vol. 70 p 307-315.
(§2) For determining platelet aggregation, approximately 250 microliters of PRP were used for a pre-treatment aggregation test. The remaining PRP was transferred to test tubes in which the atmosphere was adjusted to include xenon under two distinct pressures (4 bars of total pressure created by introducing 99.999% xenon into the test tube in a first set of experiments, and 5.3 bars of total pressure, also created by introducing 99.999% xenon into the test tube, in a second set of experiments). For adjusting the atmosphere in the containers, the test tubes were covered with rubberized caps that were punctured for introducing xenon. The test tubes were put into an experimental chamber and the atmosphere in the test tubes was adjusted by filling the test tubes with xenon using a 0.2-micrometer aseptic filter. Pressure changes in the tubes were measured using a manometer. Negative controls (no adjustment of the composition of the atmosphere in which the platelets were held) were also performed.
(§3) The chambers were shaken at 150-200 rpm on a Biosan OS-10 orbital shaker for one hour at ambient temperature (approximately 23° C.) to dissolve xenon in the PRP. The experimental chambers were then stored at approximately 4° C. with shaking at 50-70 rpm using a Biosan OS-10 orbital shaker and removed at one and two week time points for experiments under 4 bars of xenon pressure. The experiment using the initial xenon pressure of 5.3 bars were stored at 4° C. for 1 week.
After storage, the chambers were removed from refrigeration and kept at ambient temperature (approximately 23° C.) for 30 minutes with shaking at approximately 150-200 rpm. The atmosphere was then slowly allowed to equilibrate with ambient pressure of a period of 30 minutes by allowing the atmosphere in the chamber and in the test tubes to equilibrate with the atmosphere outside the test tubes through a specially adapted valve. […]
Subsequent to allowing the atmosphere in the experimental and control tubes to equilibrate with ambient pressure and temperature, the PRP samples were analyzed using conventional hemocytometer based cell counting, induced aggregation analysis using ADP and epinephrine, whereby aggregation was determined using manual counting and aggregometer analysis according to standard techniques, and by cd62p/cd61 immunostaining and flow cytometry analysis performed on an Epic XL, Beckman-Coulter cytometry machine. […]

The subject of test [2] is platelets. The test can be described thus: ADP-induced platelet aggregation, xenon compared to argon, vacuum step omitted. The settings on record: Table 3, 4 bars total pressure of gas, 4° C., 7 days, no vacuum step. The protocol: In view of the result obtained in Table 2, we performed another set of experiments to compare the properties of xenon to argon in ADP-induced platelet aggregation assays, the results of which are depicted in Table 3.
The experiments summarized in Table 3 were performed using an atmosphere of 4 bars total pressure created by introducing xenon or argon into the containers using essentially the same techniques as for the experiments described for Tables 1 and 2, except the PRP samples were cooled to 4° C. and held at approximately in an atmosphere of 3.8 bar xenon for 7 days. In this experiment, the initial partial pressure of xenon was 4 bars, but the pressure dropped to 3.8 bars during storage, presumably due to dissolution of xenon into the platelets from the atmosphere in the container.

In test [3] the test system is platelets. Description: ADP/epinephrine induced platelet aggregation after storage of PRP. The settings on record: for Aggregation (ADP/epinephrine): Xe 4 bars, Input = 100%; for Aggregation (ADP/epinephrine), %: Table 2, 7 days Xe, 4 bars.
Description: as §2, §3
After storage, the chambers were removed from refrigeration and kept at ambient temperature (approximately 23° C.) for 30 minutes with shaking at approximately 150-200 rpm. The atmosphere was then slowly allowed to equilibrate with ambient pressure of a period of 30 minutes by allowing the atmosphere in the chamber and in the test tubes to equilibrate with the atmosphere outside the test tubes through a specially adapted valve. Once the atmosphere in the chambers and test tubes equilibrated with ambient pressure, a vacuum was applied for approximately three minutes at approximately 380 mmHg to remove residual xenon from the PRP.
(§4) Analysis of the platelet function after storage included platelet counting at a hemocytometer, platelet aggregation tests using ADP and epinephrine as aggregation inducing agents, with manual counting and analysis using an aggregometer, and CD62p/CD61 antibody staining, with subsequent flow cytometry analysis on Epic XL, Beckman-Coulter generally as described in Shattil et al. (1987) Blood Vol. 70 p […] of platelets were stained using anti-CD62p and anti-CD61 antibodies obtained from commercial vendors.
(§5) Subsequent to allowing the atmosphere in the experimental and control tubes to equilibrate with ambient pressure and temperature, the PRP samples were analyzed using conventional hemocytometer based cell counting, induced aggregation analysis using ADP and epinephrine, whereby aggregation was determined using manual counting and aggregometer analysis according to standard techniques, and by cd62p/cd61 immunostaining and flow cytometry analysis performed on an Epic XL, Beckman-Coulter cytometry machine. The cdc62p/cd61 analysis was performed using commercially available antibodies and generally according to the known method reported in Shattil et al. (1987) Detection of activated platelets in whole blood using activation-dependent monoclonal antibodies and flow cytometry, Blood Vol. 70 p 307-315.

Test [4] deals with Cd41/62p. The test can be described thus: Cd41/62p immunostaining and flow cytometry (platelet activation markers). The following applies: for Cd41/62p: % of cells with activation markers, Xe 4 bars, 4° C., Input 13%.
Description: We analyzed platelet activation using a standard methodology comprising immunostaining platelets for CD62 and CD41 and subsequent analysis by flow cytometry. […] Thus, it will be recognized by those skilled in the art that the invention provides stored platelet preparations that are useful for treating individuals in need of platelet transfusion therapy. It is therefore considered that practicing the method of the invention transforms a platelet concentrate that would not ordinarily tolerate refrigeration into a platelet concentrate that can withstand refrigeration such that the platelet concentrate remains useful for transfusions after being stored at refrigerated temperature for at least two weeks. It will also be recognized that the platelet concentrate has other potential uses, such as in high-throughput assays to screen a test agent for the capability to modify platelet function.
as §1, §4, §5
In Table 1, “Input” represents pre-treatment/storage measurements. Cell number and Aggregation induced by ADP/epinephrine before performing the method are used to set 100% values. […] NG=no gas. […]
A general note: A flow cytometer gives signals particle by particle.

With `[Ar]` [Argon, argon, reference compound], the “# cells” value in test [1] is 594 *106. The same molecule showed an Aggregation % in test [2] of 100%.
Consider `[Xe]` [Xenon, xenon], for which, in test [3] (7 days Xe 4 bars 4° C., with vs without vacuum), the “improvement of ADP/Epinephrine induced aggregation by evacuating residual xenon with vacuum” value came to 20%. The “Aggregation (ADP/epinephrine)” value in test [3] (PRP stored 7 days, 4° C.) is on record as 83%; in test [3] (PRP stored 14 days, 4° C.) it was 54.5%^. Also, the “Aggregation (ADP/epinephrine), %” value is recorded as 72% in test [3] (4° C. with three minutes vacuum application) and 53% in test [3] (4° C., no vacuum). Also, in test [3] (after 2 weeks of storage, 4 bar xenon treated sample vs NG control), the “induced aggregation higher than no gas control” value was “about 20%”. Moreover, the Cell number is on record as 77.5%^ in test [1] (PRP stored 7 days, Xe 4 bars); 12.6% in test [1] (PRP stored 7 days, Xe 5.3 bars); 59% in test [1] (PRP stored 14 days, Xe 4 bars). The “# cells” value in test [1] is recorded as 674 *106. In test [2], this molecule displayed an Aggregation % of 87%. The Cd41/62p in test [4] (PRP stored 7 days) turned out to be 39%; in test [4] (PRP stored 14 days), 33%. Besides, the “surface CD62 and CD41 over control platelet concentrates not treated with xenon” value in test [4] (platelet concentrates treated by the method) is “two-fold less”. For the same molecule, the “inhibition of spontaneous activation (Cd41/62p) relative to the NG control” value in test [4] (xenon 4 bar atmosphere treated samples) is given as “two-fold better inhibition”.
